Reference: PubChem BioAssay (NCI)
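Growth conditions: 96-well plates. Treatment: test compound, 48 hours, 5 concentrations. Analysis: linear interpolation between bracketing concentrations; unreached endpoints set to highest concentration. TGI denotes the concentration required for complete inhibition of growth.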

Columns and labels:
Assay in all cases: growth of human tumour cells (NCI), 48 h
MDA-MB-435 = system: MDA-MB-435
OVCAR-5 ovarian = system: OVCAR-5 ovarian
UO-31 renal = system: UO-31 renal
SN12C renal = system: SN12C renal
SW-620 colon = system: SW-620 colon
SF-295 CNS = system: SF-295 CNS
IGROV1 ovarian = system: IGROV1 ovarian
HCC-2998 colon = system: HCC-2998 colon
786-0 renal = system: 786-0 renal
A498 renal = system: A498 renal
SF-539 CNS = system: SF-539 CNS
HCT-15 colon = system: HCT-15 colon
BT-549 breast = system: BT-549 breast
TK-10 renal = system: TK-10 renal
M14 melanoma = system: M14 melanoma
HOP-62 NSCLC = system: HOP-62 NSCLC
NCI/ADR-RES ovarian = system: NCI/ADR-RES ovarian
UACC-257 melanoma = system: UACC-257 melanoma
RPMI-8226 leukemia = system: RPMI-8226 leukemia
LOX IMVI melanoma = system: LOX IMVI melanoma
EKVX NSCLC = system: EKVX NSCLC
MCF7 breast = system: MCF7 breast
OVCAR-4 ovarian = system: OVCAR-4 ovarian
NCI-H460 lung = system: NCI-H460 lung
MDA-N = system: MDA-N
CAKI-1 renal = system: CAKI-1 renal
SK-MEL-2 melanoma = system: SK-MEL-2 melanoma
PC-3 prostate = system: PC-3 prostate
SR leukemia = system: SR leukemia
HT29 colon = system: HT29 colon
MOLT-4 leukemia = system: MOLT-4 leukemia
A549 NSCLC = system: A549 NSCLC
UACC-62 melanoma = system: UACC-62 melanoma
MALME-3M melanoma = system: MALME-3M melanoma
CCRF-CEM leukemia = system: CCRF-CEM leukemia
SK-MEL-28 melanoma = system: SK-MEL-28 melanoma
SK-OV-3 ovarian = system: SK-OV-3 ovarian
SNB-19 CNS = system: SNB-19 CNS
SK-MEL-5 melanoma = system: SK-MEL-5 melanoma
COLO 205 colon = system: COLO 205 colon
HOP-92 NSCLC = system: HOP-92 NSCLC
SF-268 CNS = system: SF-268 CNS
OVCAR-8 ovarian = system: OVCAR-8 ovarian
HS 578T breast = system: HS 578T breast
K-562 leukemia = system: K-562 leukemia
HL-60(TB) leukemia = system: HL-60(TB) leukemia
HCT-116 colon = system: HCT-116 colon
ACHN renal = system: ACHN renal
NCI-H23 lung = system: NCI-H23 lung
OVCAR-3 ovarian = system: OVCAR-3 ovarian
NCI-H522 lung = system: NCI-H522 lung
DU-145 prostate = system: DU-145 prostate
NCI-H226 lung = system: NCI-H226 lung
KM12 colon = system: KM12 colon
RXF 393 renal = system: RXF 393 renal
MDA-MB-231 breast = system: MDA-MB-231 breast
T-47D breast = system: T-47D breast
U251 CNS = system: U251 CNS

CCCNC(=O)Cn1c2c(c3ccccc31)CCCC2
TGI (MDA-MB-435): > 100 µM | TGI (OVCAR-5 ovarian): > 100 µM | TGI (UO-31 renal): 89.9 µM | TGI (SN12C renal): > 100 µM | TGI (SW-620 colon): > 100 µM | TGI (SF-295 CNS): > 100 µM | TGI (IGROV1 ovarian): > 100 µM | TGI (HCC-2998 colon): > 100 µM | TGI (786-0 renal): > 100 µM | TGI (A498 renal): > 100 µM | TGI (SF-539 CNS): > 100 µM | TGI (HCT-15 colon): > 100 µM | TGI (BT-549 breast): > 100 µM | TGI (TK-10 renal): > 100 µM | TGI (M14 melanoma): > 100 µM | TGI (HOP-62 NSCLC): > 100 µM | TGI (NCI/ADR-RES ovarian): > 100 µM | TGI (UACC-257 melanoma): > 100 µM | TGI (RPMI-8226 leukemia): > 100 µM | TGI (LOX IMVI melanoma): > 100 µM | TGI (EKVX NSCLC): > 100 µM | TGI (MCF7 breast): > 100 µM | TGI (OVCAR-4 ovarian): > 100 µM | TGI (NCI-H460 lung): > 100 µM | TGI (MDA-N): > 100 µM | TGI (CAKI-1 renal): > 100 µM | TGI (SK-MEL-2 melanoma): > 100 µM | TGI (PC-3 prostate): > 100 µM | TGI (SR leukemia): > 100 µM | TGI (HT29 colon): > 100 µM | TGI (MOLT-4 leukemia): > 100 µM | TGI (A549 NSCLC): > 100 µM | TGI (UACC-62 melanoma): > 100 µM | TGI (MALME-3M melanoma): > 100 µM | TGI (CCRF-CEM leukemia): > 100 µM | TGI (SK-MEL-28 melanoma): > 100 µM | TGI (SK-OV-3 ovarian): > 100 µM | TGI (SNB-19 CNS): > 100 µM | TGI (SK-MEL-5 melanoma): > 100 µM | TGI (COLO 205 colon): > 100 µM | TGI (HOP-92 NSCLC): > 100 µM | TGI (SF-268 CNS): > 100 µM | TGI (OVCAR-8 ovarian): > 100 µM | TGI (HS 578T breast): 68.8 µM | TGI (K-562 leukemia): > 100 µM | TGI (HL-60(TB) leukemia): > 100 µM | TGI (HCT-116 colon): > 100 µM | TGI (ACHN renal): > 100 µM | TGI (NCI-H23 lung): > 100 µM | TGI (OVCAR-3 ovarian): > 100 µM

Cc1ccc(C(=O)C2C=C(c3ccc(C)cc3)SC3C=CCC32)cc1 (stereo not given)
TGI (MDA-MB-435): 30 µM | TGI (OVCAR-5 ovarian): 44.4 µM | TGI (UO-31 renal): 29.6 µM | TGI (SN12C renal): 33.1 µM | TGI (SW-620 colon): 29.8 µM | TGI (SF-295 CNS): 39.9 µM | TGI (IGROV1 ovarian): 40.1 µM | TGI (NCI-H522 lung): 29.6 µM | TGI (786-0 renal): 38.3 µM | TGI (DU-145 prostate): > 100 µM | TGI (A498 renal): 58.4 µM | TGI (SF-539 CNS): 32.2 µM | TGI (HCT-15 colon): 47.9 µM | TGI (BT-549 breast): 37.3 µM | TGI (TK-10 renal): 53.3 µM | TGI (M14 melanoma): 36.4 µM | TGI (HOP-62 NSCLC): 45.2 µM | TGI (NCI-H226 lung): 66.1 µM | TGI (NCI/ADR-RES ovarian): 40.8 µM | TGI (UACC-257 melanoma): 54.3 µM | TGI (RPMI-8226 leukemia): 80.1 µM | TGI (LOX IMVI melanoma): 39.5 µM | TGI (EKVX NSCLC): 97.6 µM | TGI (KM12 colon): 30.3 µM | TGI (OVCAR-4 ovarian): 75.7 µM | TGI (NCI-H460 lung): 37.3 µM | TGI (MDA-N): 32.3 µM | TGI (CAKI-1 renal): 42.4 µM | TGI (SK-MEL-2 melanoma): 36.8 µM | TGI (PC-3 prostate): 39.4 µM | TGI (SR leukemia): 58.2 µM | TGI (HT29 colon): 43.1 µM | TGI (MOLT-4 leukemia): 44.9 µM | TGI (A549 NSCLC): 57.1 µM | TGI (UACC-62 melanoma): 38.8 µM | TGI (MALME-3M melanoma): 34.1 µM | TGI (CCRF-CEM leukemia): 38.3 µM | TGI (RXF 393 renal): 37.7 µM | TGI (SK-MEL-28 melanoma): 33.9 µM | TGI (SK-OV-3 ovarian): 54.3 µM | TGI (SNB-19 CNS): > 100 µM | TGI (SK-MEL-5 melanoma): 29.2 µM | TGI (COLO 205 colon): 38 µM | TGI (HOP-92 NSCLC): 34 µM | TGI (MDA-MB-231 breast): 43.8 µM | TGI (OVCAR-8 ovarian): 32.3 µM | TGI (HS 578T breast): 73.8 µM | TGI (K-562 leukemia): > 100 µM | TGI (T-47D breast): 50.6 µM | TGI (HL-60(TB) leukemia): > 100 µM | TGI (HCT-116 colon): 27.8 µM | TGI (ACHN renal): 47.7 µM | TGI (U251 CNS): 32.5 µM | TGI (NCI-H23 lung): 53 µM | TGI (OVCAR-3 ovarian): 31.8 µM
